# In patent EP4562003B1, “NOVEL 7-SUBSTITUTED INDOLE SULFONAMIDE DERIVATIVES” (F. Hoffmann-La Roche AG, priority 2022, dated 2024):
# Biological target: human GPR17 short isoform (Homo sapiens, UniProt Q13304)
# Assay: GPR17 cAMP assay (TR-FRET cAMP quantification, antagonist mode)
# Assay type: cell-based
# Conditions: CHO-K1 cells stably expressing human GPR17 short isoform; EC80 of agonist MDL29,951; forskolin 15µM; IBMX 0.5mM; 30 minutes at room temperature; read-out: hGPR17 cAMP IC50
# In short: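 CHO-K1 cells stably expressing untagged human GPR17 short isoform, 10'000 cells/well in HBSS/10mM HEPES/0.1% BSA pH 7.4. Compounds added with EC80 MDL29,951 plus 0.5mM IBMX, then 15µM forskolin; 30 min at room temperature. cAMP read by TR-FRET after 90 min lysis; normalized to reference antagonist maximal activity, sigmoidal fit.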
# Chain of human GPR17 short isoform (Q13304 29-367): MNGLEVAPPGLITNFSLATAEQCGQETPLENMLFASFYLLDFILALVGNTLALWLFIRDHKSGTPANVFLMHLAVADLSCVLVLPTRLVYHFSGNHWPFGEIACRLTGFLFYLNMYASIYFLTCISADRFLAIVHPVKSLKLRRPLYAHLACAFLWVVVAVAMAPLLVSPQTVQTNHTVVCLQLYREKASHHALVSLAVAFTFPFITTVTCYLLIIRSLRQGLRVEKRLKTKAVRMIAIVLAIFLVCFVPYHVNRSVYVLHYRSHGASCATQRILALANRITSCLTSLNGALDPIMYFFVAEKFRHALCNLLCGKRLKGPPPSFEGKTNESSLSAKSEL
row,IC50,SMILES
1,82 nM,"COc1nc(NS(=O)(=O)c2c[nH]c3c(-c4cnn(C)c4)c(Cl)ccc23)nc(OC)c1OC(F)F [Example 113, 6-chloro-N-[5-(difluoromethoxy)-4,6-dimethoxy-pyrimidin-2-yl]-7-(1-methylpyrazol-4-yl)-1H-indole-3-sulfonamide]"
2,55 nM,"COc1nc(NS(=O)(=O)c2c[nH]c3c(-c4cnn(C)c4)c(Cl)ccc23)nc(OC)c1CC(F)F [Example 114, 6-chloro-N-[5-(2,2-difluoroethyl)-4,6-dimethoxy-pyrimidin-2-yl]-7-(1-methylpyrazol-4-yl)-1H-indole-3-sulfonamide]"
3,40 nM,"COc1nc(NS(=O)(=O)c2c[nH]c3c(-c4cscn4)c(Cl)ccc23)nc(OC)c1OCC(F)F [Example 115, 6-chloro-N-[5-(2,2-difluoroethoxy)-4,6-dimethoxy-pyrimidin-2-yl]-7-thiazol-4-yl-1H-indole-3-sulfonamide]"
4,59 nM,"COc1nc(NS(=O)(=O)c2c[nH]c3c(-c4cnco4)c(Cl)ccc23)nc(OC)c1OCC(F)F [Example 116, 6-chloro-N-[5-(2,2-difluoroethoxy)-4,6-dimethoxy-pyrimidin-2-yl]-7-oxazol-5-yl-1H-indole-3-sulfonamide]"
5,106 nM,"COc1nc(NS(=O)(=O)c2c[nH]c3c(-c4cnco4)c(Cl)ccc23)nc(OC)c1OC(F)F [Example 117, 6-chloro-N-[5-(difluoromethoxy)-4,6-dimethoxy-pyrimidin-2-yl]-7-oxazol-5-yl-1H-indole-3-sulfonamide]"
6,63 nM,"COc1nc(NS(=O)(=O)c2c[nH]c3c(-c4cnoc4)c(Cl)ccc23)nc(OC)c1OCC(F)F [Example 118, 6-chloro-N-[5-(2,2-difluoroethoxy)-4,6-dimethoxy-pyrimidin-2-yl]-7-isoxazol-4-yl-1H-indole-3-sulfonamide]"
7,129 nM,"COc1nc(NS(=O)(=O)c2c[nH]c3c(-c4cnoc4)c(Cl)ccc23)nc(OC)c1OC(F)F [Example 119, 6-chloro-N-[5-(difluoromethoxy)-4,6-dimethoxy-pyrimidin-2-yl]-7-isoxazol-4-yl-1H-indole-3-sulfonamide]"
8,149 nM,"COc1nc(NS(=O)(=O)c2c[nH]c3c(-c4cscn4)c(Cl)ccc23)nc(OC)c1OC(F)F [Example 120, 6-chloro-N-[5-(difluoromethoxy)-4,6-dimethoxy-pyrimidin-2-yl]-7-thiazol-4-yl-1H-indole-3-sulfonamide]"
9,46 nM,"COc1nc(NS(=O)(=O)c2c[nH]c3c(-c4ncc5n4CCC5)cccc23)nc(OC)c1CC(F)F [Example 121, N-[5-(2,2-difluoroethyl)-4,6-dimethoxy-pyrimidin-2-yl]-7-(6,7-dihydro-5H-pyrrol[1,2-c]imidazol-3-yl)-1H-indole-3-sulfonamide]"
